Data on 23 compounds can be found in patent US20160361329A1, “COMPOUNDS FOR TREATMENT OF COMPLEMENT MEDIATED DISORDERS” (Achillion Pharmaceuticals, Inc., priority 2014, published 2016).

pIC50: −log10 of the molar value.

One may read the pIC50 as the IC50 on a negative log10 scale, so that one unit is a factor of ten.

T1 sequence (P00746 26-253): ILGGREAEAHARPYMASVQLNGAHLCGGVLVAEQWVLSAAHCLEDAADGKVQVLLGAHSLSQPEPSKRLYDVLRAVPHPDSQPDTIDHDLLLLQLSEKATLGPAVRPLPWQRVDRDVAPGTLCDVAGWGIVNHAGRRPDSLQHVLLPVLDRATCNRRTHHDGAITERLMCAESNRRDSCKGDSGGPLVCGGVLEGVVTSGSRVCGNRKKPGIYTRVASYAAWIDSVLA

The test addresses T1, Human factor D (Homo sapiens, UniProt P00746).
T1 construct: purified from human serum; purchased Complement Technology, Inc; host or cells: human serum
Put plainly: Human Factor D Assay. The conditions noted are these: Human factor D 80 nM, substrate Z-L-Lys-SBzl and DTNB, pH 7.5. It counts as biochemical. How it is done:
Other standard factor D inhibition assays are also available.
Human factor D (purified from human serum, Complement Technology, Inc.) at 80 nM final concentration is incubated with test compound at various concentrations for 5 minutes at room temperature in 50 mM Tris, 1M NaCl, pH 7.5. A synthetic substrate Z-L-Lys-SBzl and DTNB (Ellman's reagent) are added to final concentrations of 100 μM each. The increase in color is recorded at OD405 nm in a microplate in kinetic mode over 30 minutes with 30 second time points in a spectrofluorimeter. IC50 values are calculated by non-linear regression from the percentage of inhibition of complement factor D activity as a function of test compound concentration.
The compound `NC(=O)n1cc(NC(=O)N2c3ccccc3C[C@H]2C(=O)NCc2cccc(Cl)c2F)c2ccccc21` [Compound 2, (S)-N1-(1-carbamoyl-1H-indol-3-yl)-N2-(3-chloro-2-fluorobenzyl)indoline-1,2-dicarboxamide] gave a negative logarithm of the IC50 (pIC50) of 5.00 to 6.00.
Then `NC(=O)n1cc(NC(=O)N2C[C@H](F)C[C@H]2c2ncc(-c3cccc(Cl)c3)[nH]2)c2ccccc21` [Compound 10, 3-((2S,4R)-2-(5-(3-chlorophenyl)-1H-imidazol-2-yl)-4-fluoropyrrolidine-1-carboxamido)-1H-indole-1-carboxamide], with 5.00 to 6.00.
The figure for `NC(=O)n1cc(NC(=O)N2C[C@H](F)C[C@H]2c2ncc(-c3cccc(Br)n3)[nH]2)c2ccccc21` [Compound 12, 3-((2S,4R)-2-(5-(6-bromopyridin-2-yl)-1H-imidazol-2-yl)-4-fluoropyrrolidine-1-carboxamido)-1H-indole-1-carboxamide] is 5.00 to 6.00; for `CC(=O)c1cn(CC(=O)N2C[C@H](F)C[C@H]2c2ncc(-c3cccc(Br)n3)[nH]2)c2ccccc12` [Compound 13, 2-(3-acetyl-1H-indol-1-yl)-1-((2S,4R)-2-(5-(6-bromopyridin-2-yl)-1H-imidazol-2-yl)-4-fluoropyrrolidin-1-yl)ethanone] it is 5.00 to 6.00; for `NC(=O)n1cc(NC(=O)N2C[C@H](F)C[C@H]2c2nc3cc(Cl)ccc3[nH]2)c2ccccc21` [Compound 14, 3-((2S,4R)-2-(5-chloro-1H-benzo[d]imidazol-2-yl)-4-fluoropyrrolidine-1-carboxamido)-1H-indole-1-carboxamide] it is 5.00 to 6.00.
The figure for `NC(=O)n1cc(NC(=O)[C@@H]2CCC[C@H]2C(=O)NCc2cccc(Cl)c2F)c2ccccc21` [Compound 23, (1R,2R)-N1-(1-carbamoyl-1H-indol-3-yl)-N2-(3-chloro-2-fluorobenzyl)cyclopentane-1,2-dicarboxamide] is 5.00 to 6.00; for `CC(=NC#N)c1cn(CC(=O)N2C[C@H](F)C[C@H]2C(=O)NCc2cccc(Cl)c2F)c2ccccc12` [Compound 32, (2S,4R)-N-(3-chloro-2-fluorobenzyl)-1-(2-(3-(1-(cyanoimino)ethyl)-1H-indol-1-yl)acetyl)-4-fluoropyrrolidine-2-carboxamide] it is 5.00 to 6.00.
The compound `CC(=O)c1cn(CC(=O)N2C[C@H](F)C[C@H]2c2ncc(-c3cccc(Br)n3)[nH]2)c2cc(O)ccc12` [Compound 40, 2-(3-acetyl-6-hydroxy-1H-indol-1-yl)-1-((2S,4R)-2-(5-(6-bromopyridin-2-yl)-1H-imidazol-2-yl)-4-fluoropyrrolidin-1-yl)ethanone] had a pIC50 of 5.00 to 6.00.
The figure for `CC(=O)c1cn(CC(=O)N2CC3(C[C@H]2C(=O)Nc2cccc(OC(F)(F)F)c2F)OCCO3)c2cc(O)ccc12` [Compound 41, (S)-7-(2-(3-acetyl-6-hydroxy-1H-indol-1-yl)acetyl)-N-(2-fluoro-3-(trifluoromethoxy)phenyl)-1,4-dioxa-7-azaspiro[4.4]nonane-8-carboxamide] is 5.00 to 6.00; for `CC(=O)c1cn(CC(=O)N2C[C@H](F)C[C@H]2C(=O)NC2CCc3ccccc32)c2ccccc12` (some centres unmarked) [Compound 42] it is 5.00 to 6.00.
The figure for `CC(=O)c1cn(CC(=O)N2C[C@H](F)C[C@H]2C(=O)NC2CCc3c(Cl)cccc32)c2ccccc12` (stereo partly drawn) [Compound 44, (2S,4R)-1-(2-(3-acetyl-1H-indol-1-yl)acetyl)-N-(4-chloro-2,3-dihydro-1H-inden-1-yl)-4-fluoropyrrolidine-2-carboxamide] is 5.00 to 6.00; for `O=C(NCc1cccc(Cl)c1F)[C@@H]1C[C@@H](F)CN1C(=O)CC1=Nc2ccccc2S(=O)(=O)N1` [Compound 49, (2S,4R)-N-(3-chloro-2-fluorobenzyl)-1-(2-(1,1-dioxido-2H-benzo[e][1,2,4]thiadiazin-3-yl)acetyl)-4-fluoropyrrolidine-2-carboxamide] it is 5.00 to 6.00; for `CCOP(=O)(OCC)c1nn(CC(=O)N2C[C@H](F)C[C@H]2C(=O)NCc2cccc(Cl)c2F)c2cnccc12` [Compound 53, diethyl 1-(2-((2S,4R)-2-(3-chloro-2-fluorobenzylcarbamoyl)-4-fluoropyrrolidin-1-yl)-2-oxoethyl)-1H-pyrazolo[3,4-c]pyridin-3-ylphosphonate] it is 5.00 to 6.00.
The figure for `CC(=O)c1ccc(CC(=O)N2C[C@H](F)C[C@H]2C(=O)NCc2cccc(Cl)c2F)c2ccccc12` [Compound 58, (2S,4R)-1-(2-(4-acetylnaphthalen-1-yl)acetyl)-N-(3-chloro-2-fluorobenzyl)-4-fluoropyrrolidine-2-carboxamide] is 5.00 to 6.00; for `CCOP(=O)(OCC)c1cc(Cl)cc(NC(=O)[C@@H]2C[C@@H](F)CN2C(=O)Cn2cc(C(C)=O)c3ccccc32)c1` [Compound 59, diethyl 3-((2S,4R)-1-(2-(3-acetyl-1H-indol-1-yl)acetyl)-4-fluoropyrrolidine-2-carboxamido)-5-chlorophenylphosphonate] it is 5.00 to 6.00; for `CCOP(=O)(O)c1nn(CC(=O)N2C[C@H](F)C[C@H]2C(=O)NCc2cccc(Cl)c2F)c2cnccc12` [Compound 60, ethyl hydrogen 1-(2-((2S,4R)-2-(3-chloro-2-fluorobenzylcarbamoyl)-4-fluoropyrrolidin-1-yl)-2-oxoethyl)-1H-pyrazolo[3,4-c]pyridin-3-ylphosphonate] it is 5.00 to 6.00.
Regarding `C=C[C@@H]1C[C@]1(NC(=O)[C@@H]1C[C@@H](F)CN1C(=O)Cn1cc(C(C)=O)c2ccc(O)cc21)C(=O)NS(=O)(=O)C1CC1` [Compound 64, (2S,4R)-1-(2-(3-acetyl-6-hydroxy-1H-indol-1-yl)acetyl)-N-((1R,2S)-1-(cyclopropylsulfonyl-carbamoyl)-2-vinylcyclopropyl)-4-fluoropyrrolidine-2-carboxamide], the negative-log IC50 (pIC50) is 5.00 to 6.00.
The figure for `CC(=O)c1cn(CC(=O)N2[C@@H]3CCCC[C@@H]3C[C@H]2C(=O)NCc2cccc(Cl)c2F)c2cc(O)ccc12` [Compound 66, (2S,3aR,7aR)-1-(2-(3-acetyl-6-hydroxy-1H-indol-1-yl)acetyl)-N-(3-chloro-2-fluorobenzyl)octahydro-1H-indole-2-carboxamide] is 5.00 to 6.00; for `CS(=O)(=O)N1CCc2c(n(CC(=O)N3C[C@H](F)C[C@H]3C(=O)NCc3cccc(Cl)c3F)c3ccccc23)C1` [Compound 69, (2S,4R)-N-(3-chloro-2-fluorobenzyl)-4-fluoro-1-(2-(2-(methylsulfonyl)-3,4-dihydro-1H-pyrido[3,4-b]indol-9(2H)-yl)acetyl)pyrrolidine-2-carboxamide] it is 5.00 to 6.00; for `NC(c1cn(CC(=O)N2C[C@H](F)C[C@H]2C(=O)NCc2cccc(Cl)c2F)c2ccccc12)C(F)(F)F` (stereo partly drawn) [Compound 78, (2S,4R)-1-(2-(3-(1-amino-2,2,2-trifluoroethyl)-1H-indol-1-yl)acetyl)-N-(3-chloro-2-fluorobenzyl)-4-fluoropyrrolidine-2-carboxamide] it is 5.00 to 6.00.
The figure for `COc1cccc2c1c(C(C)=O)cn2CC(=O)N1C[C@H](F)C[C@H]1C(=O)Nc1cccc(-c2ccccc2Cl)c1F` [Compound 96, (2S,4R)-1-(2-(3-acetyl-4-methoxy-1H-indol-1-yl)acetyl)-N-(2′-chloro-2-fluorobiphenyl-3-yl)-4-fluoropyrrolidine-2-carboxamide] is 5.00 to 6.00; for `[2H]C([2H])(NC(=O)[C@@H]1C[C@H]2C[C@H]2N1C(=O)Cn1nc(C(N)=O)c2ccncc21)c1cccc(Cl)c1F` [Compound 127, (1R,3S,5R)-2-(2-(3-carbamoyl-1H-pyrazolo[3,4-c]pyridin-1-yl)acetyl)-2-azabicyclo[3.1.0]hexane-3-carboxammide, N-(3-chloro-2-fluorophenylmethyl-d2)] it is over 6.00; for `[2H]C([2H])(NC(=O)[C@@H]1C[C@@H](F)CN1C(=O)Cn1nc(C(N)=O)c2ccncc21)c1cccc(Cl)c1F` [Compound 128, (2S,4R)-1-(2-(3-carbamoyl-1H-pyrazolo[3,4-c]pyridin-1-yl)acetyl)-4-fluoropyrrolidine-2-carboxamide, N-(3-chloro-2-fluorophenylmethyl-d2)] it is over 6.00.
